# Reference: patent publication US11375718B2, “Use of prodigiosin in resisting potyvirus” (priority 2020, dated 2022)
# Residues, ends and D or L forms follow the SMILES beside them. *: point of attachment. Cbz = O=C(OCc1ccccc1)*
# Tests used:
# Hsp70 protein = assay: Western blot of Hsp70 protein in MG-132-treated plants induced by prodigiosin S3; assay type: in vivo, Nicotiana benthamiana
# Procedure: In order to further analyze the role of ubiquitination modification in the antiviral mechanism of prodigiosin S3, we used MG-132 to treat Nicotiana benthamiana in advance. After 2 h, 0.05 μg/L prodigiosin was applied on the tobacco leaf surface uniformly according to 15 L/mu. After 30 minutes, TMV and PVY viruses were inoculated. The samples of 1 d, 2 d and 3 d after virus inoculation were collected for Western Blot analysis.
# 26S proteasome complex = details: read-out: IC50 (proteasome inhibitor); cited from earlier work
# TMV = assay: Induced resistance of tobacco to TMV after leaf application of prodigiosin; assay type: in vivo, Nicotiana tabacum cv. NC89; details: infiltration treatment
# Procedure: (§1) The plant material used in this experiment was Nicotiana tabacum cv. NC89, reproduced by our laboratory and cultivated in a greenhouse. Experimental plant culture conditions included: illumination 16 h, temperature 25±1° C., illumination intensity 2000 lux and relative humidity 60%; and dark duration 8 h, temperature 25±1° C. and relative humidity 60%. The nutrient substrate was produced by the Wode nutrient soil processing plant in Shouguang City, Shandong Province, and no additional fertilization was needed during plant growth. The sources of TMV and PVY were preserved by the Plant Protection Research Center of the Institute of Tobacco Research of CAAC (Chinese Academy of Agricultural Sciences), and were propagated and preserved on Nicotiana tabacum cv. NC89 grown in the greenhouse. The prodigiosin S3 was isolated and purified from Serratia marcescens fermentation broth by Plant Protection Research Center of the Institute of Tobacco Research of CAAC.
# PVY = assay: Induced resistance of tobacco to PVY after leaf application of prodigiosin; assay type: in vivo, Nicotiana tabacum cv. NC89; details: infiltration treatment
# Procedure: as §1
# [1] = Quantitative proteomics and ubiquitination omics of prodigiosin-treated tobacco leaves; assay type: in vivo, Nicotiana benthamiana; details: treatment group vs control group, p<0.05
# Description: In order to further understand the mechanism of systemic resistance of a plant induced by prodigiosin, the prodigiosin treated Nicotiana benthamiana was used as a target material, the optimal reaction time point of prodigiosin against PVY was selected, and the quantitative proteomics and ubiquitinated nonstandard quantitative proteomics in tobacco leaves were studied by organically combining a series of advanced technologies such as non-standard quantitative technology, high performance liquid chromatography (HPLC) fractionation technology, ubiquitinated peptide enrichment technology and quantitative proteomics technology based on mass spectrometry.
# Extraction of protein. The leaf sample was taken from −80° C., put in a mortar precooled with liquid nitrogen, fed with liquid nitrogen, and fully ground to powder; 4 times the volume of powdered lysis buffer (8 M urea, 1% TritonX-100, 10 mM DTT, 1% protease inhibitor and 50 μM PR-619) was added for ultrasonic lysis; followed by 10 min of centrifugation (4° C., 20000 g), the supernatant was carefully aspirated off, and trichloroacetic acid was added to a final concentration of 20%; the mixture was left at 4° C. for 2 h; and centrifuged (4° C., 20000 g) for 3 min. The supernatant was discharged, and the precipitate was washed with precooled acetone for three times; the precipitate was re-dissolved (8 M urea) and the protein concentration was determined.
# Proteolysis. DTT was added to the protein solution to a final concentration of 5 mM and was reduced at 56° C. for 30 min. Iodoacetamide was then added and incubated for 15 min at room temperature away from light. Pancreatin was added based on a mass ratio of pancreatin:protein=1:50 and enzymolysis was performed at 37° C. overnight. Pancreatin was added again based on a mass ratio of pancreatin:protein=1:100 and enzymolysis was continued for 4 h.
# HPLC Fractionation. The enzymatic solution was fractionated by high pH reverse phase HPLC on an Agilent 300 Extend C18 (5 μm particle size, 4.6 mm internal diameter, 250 mm length) column. The operation was as follows: a peptide fragment grading gradient was 8%-32% acetonitrile, the pH was 9; 60 components were separated in 60 min, then the components were combined into 4 components, and the combined components were subjected to lyophilization for subsequent operations.
# HPLC-MS Analysis. The lyophilized fractions were analyzed by HPLC-MS: dissolved by a mobile phase A phase (0.1% (v/v) formic acid in water) and separated using EASY-nLC 1000 ultra high performance liquid phase system. […]
# Database Search. […] Differential genes and proteins were analyzed by GO enrichment, and KEGG pathway.
# [2] = 2031 sites on 1110 proteins identified
Compound,content of Hsp70 protein (Hsp70 protein; MG-132-treated samples induced by prodigiosin S3),"accumulation of Hsp70 protein (Hsp70 protein; MG-132 in advance, after 2 h 0.05 μg/L prodigiosin at 15 L/mu, inoculated after 30 minutes, PVY virus 1 d, vs control group)",IC50 (26S proteasome complex) [nM],induced resistance to TMV (TMV) [%],induced resistance to PVY (PVY) [%],"number of ubiquitination sites with down-regulated modification level [1, 2]","number of ubiquitination sites with up-regulated modification level [1, 2]",number of proteins with down-regulated expression ([1]; 6122 proteins identified),number of proteins with up-regulated expression ([1]; 6122 proteins identified)
CC(C)C[C@@H](C=O)NC(=O)[C@H](CC(C)C)NC(=O)[C@H](CC(C)C)NC(=O)OCc1ccccc1 [MG-132] (Cbz-Leu-Leu-Leu-aldehyde),increases significantly,significantly increased,100,–,–,–,–,–,–
CCCCCC1=C/C(=C/c2[nH]c(-c3ccc[nH]3)cc2OC)N=C1C [prodigiosin],–,–,–,100,100,21,33,186,223
